Here are results for 2 molecules from article PMC3758303 (PLoS ONE, 2013).

The test system of series [1] is genome-length HCV-RNA (O strain of genotype 1b) replication in HuH-7-derived OR6 cells. As to the kind of experiment: OR6 RL assay. The series is classed as cell-based, hepatitis C virus. The conditions noted are these: for EC50: Hepatitis C virus, OR6 assay, HuH-7, HCV strain O, 72 hrs, RL assay. Here is the method:
(§1) RSc and D7 cells were derived from the cell lines HuH-7 and Li23, respectively, were cultured as described previously, [29]. HuH-7-derived OR6 [13], AH1R [30], and 1B-4R [Ikeda et al., submitted] cells harboring genome-length HCV-RNA and HuH-7-derived polyclonal sOR [31], and RSc-JRN/35B [Ikeda et al., submitted] cells harboring an HCV subgenomic replicon were cultured with medium in the presence of G418 (0.3 mg/ml; Geneticin, Invitrogen, Carlsbad, CA) as described previously. Li23-derived ORL8 [20], ORL11 [20], 1B-4RL [Ikeda et al., submitted], and KAH5RL [Ikeda et al., submitted] cells harboring genome-length HCV-RNA were maintained with medium in the presence of G418 (0.3 mg/ml) as described previously. Li23-derived polyclonal sORL8 and sORL11 cells harboring an HCV replicon, which were established by the transfection of ORN/3-5B/QR,KE,SR RNA into the cured OL8 and OL11 cells, respectively, were also cultured with medium in the presence of G418 (0.3 mg/ml) as described previously. Cured cells, from which the HCV-RNA had been eliminated by IFN treatment, were also maintained with medium in the absence of G418 as described previously. […] Therefore, when HCV-RNA is excluded from the cells or when its level is decreased, the cells are killed in the presence of G418.
(§2) RL assay was performed as described previously, [24]. Briefly, the cells were plated onto 24-well plates (2×10^4 cells per well) in triplicate and then treated with each reagent at several concentrations for 72 hrs. After treatment, the cells were subjected to luciferase assay using the RL assay system (Promega, Madison, WI). The experiments were performed at least in triplicate. From the assay results, the 50% effective concentration (EC50) of each reagent was determined.
(§3) The SI value of each reagent was determined by dividing the CC50 value by the EC50 value.

The test system of series [2] is HCV subgenomic replicon RNA (O strain) replication in HuH-7-derived polyclonal sOR cells. As to the kind of experiment: sOR RL assay. It counts as cell-based, hepatitis C virus. Conditions: HuH-7, subgenomic replicon. Here is the method:
as §1, §2, §3
(A replicon is a self-replicating genome or part of one, used to study replication in cells.)

Series [3] can be described thus: WST-1 cell proliferation assay, ORL11 cells. The conditions noted are these: human. It counts as cell-based. Here is the method:
(§4) The WST-1 cell proliferation assay was performed as described previously. Briefly, The cells were plated onto 96-well plates (1×10^3 cells per well) in triplicate and then treated with each reagent at several concentrations for 72 hrs. After treatment, the cells were subjected to the WST-1 cell proliferation assay (Takara Bio, Otsu, Japan) according to the manufacturer’s protocol. This assay is based on the enzymatic cleavage of the tetrazolium salt WST-1 to formazan by cellular mitochondrial dehydrogenases present in viable cells. Therefore, there are […] the value of the WST-1 assay becomes zero. The experiments were performed at least in triplicate. From the assay results, the 50% cytotoxic concentration (CC50) of each reagent was determined.

Series [4] deals with subgenomic HCV-JFH-1 replicon in RSc-JRN/35B cells. As to the kind of experiment: RSc-JRN/35B RL assay. The series is classed as cell-based, hepatitis C virus. On the procedure: RSc and D7 cells were derived from the cell lines HuH-7 and Li23, respectively, were cultured as described previously, [29]. HuH-7-derived OR6 [13], AH1R [30], and 1B-4R [Ikeda et al., submitted] cells harboring genome-length HCV-RNA and HuH-7-derived polyclonal sOR [31], and RSc-JRN/35B [Ikeda et al., submitted] cells harboring an HCV subgenomic replicon were cultured with medium in the presence of G418 (0.3 mg/ml; Geneticin, Invitrogen, Carlsbad, CA) as described previously. Li23-derived ORL8 [20], ORL11 [20], 1B-4RL [Ikeda et al., submitted], and KAH5RL [Ikeda et al., submitted] cells harboring genome-length HCV-RNA were maintained with medium in the presence of G418 (0.3 mg/ml) as described previously. Li23-derived polyclonal sORL8 and sORL11 cells harboring an HCV replicon, which were established by the transfection of ORN/3-5B/QR,KE,SR RNA into the cured OL8 and OL11 cells, respectively, were also cultured with medium in the presence of G418 (0.3 mg/ml) as described previously. […]
(§5) We next examined whether N-89 and N-251 worked in an HCV production system using HCV-JFH-1 strain (genotype 2a). […] To clarify whether anti-HCV activity depends on the difference of genotype or assay model, we evaluated the activities of N-89 and N-251 using RSc-JRN/35B [Ikeda et al., submitted] cells harboring a subgenomic HCV-JFH-1 replicon as an additional assay.

Series [5] in a line: WST-1 cell proliferation assay, 1B-4RL cells. The conditions noted are these: human. The series is classed as cell-based. On the procedure: as §4
A short description of series [6]: WST-1 cell proliferation assay, OR6 cells. It counts as cell-based. The conditions noted are these: human. Here is the method: as §4
For orientation: Formazan colour is commonly taken as a measure of viable cells.

Series [7] deals with genome-length HCV-RNA (AH1 strain of genotype 1b) replication in HuH-7-derived AH1R cells. As to the kind of experiment: AH1R RL assay. Conditions: Hepatitis C virus, HuH-7, HCV strain AH1, 72 hrs. The series is classed as cell-based. Here is the method:
as §1, with “G418. […]” for “G418.”
as §3

A short description of series [8]: WST-1 cell proliferation assay, AH1R cells. The series is classed as cell-based. Conditions: human. On the procedure:
as §4

The subject of series [9] is HCV-JFH-1 strain (genotype 2a) in Li23-derived D7 cells. As to the kind of experiment: JFH-1 reporter assay system, D7 cells. It counts as cell-based, hepatitis C virus. The conditions noted are these: D7 cells inoculated with JR/C5B/BX-2 supernatant, RL assay. Here is the method:
HCV infection was performed as described previously. RSc and D7 cells were inoculated with supernatant from RSc cells replicating JR/C5B/BX-2 [29].
Figure 2 Characterization of anti-HCV activities of N-89 and N-251. (A) Schematic gene organization of authentic HCV-RNA (HCV-O/RLGE). The positions of four adaptive mutations - Q1112R, P1115L, E1202G, and K1609E - are indicated by a black star. (B) N-89 and N-251 inhibited authentic HCV-RNA replication. The cells harboring HCV-O/RLGE RNA [19] were treated with N-89 (left panel) and N-251 (right panel) for 72 hrs, followed by real-time LightCycler PCR (black circles in the upper panel) and WST-1 assay (open triangles in the upper panel). The relative value (%) calculated at each point, when the level in non-treated cells was assigned as 100%, is presented here. Data are expressed as the means±standard deviation of triplicate assays. Western blot analysis (lower panels) was performed as described in Fig. 1B. […]
as §5

For series [10], the system named is genome-length HCV-RNA (1B-4 strain of genotype 1b) replication in HuH-7-derived 1B-4R cells. As to the kind of experiment: 1B-4R RL assay. The series is classed as cell-based. Conditions: Hepatitis C virus, 1B-4R assay, HuH-7, HCV strain 1B-4, 72 hrs. Here is the method: as §1, with “G418. […]” for “G418.”
as §3

The test system of series [11] is genome-length HCV-RNA (1B-4 strain of genotype 1b) replication in Li23-derived 1B-4RL cells. The series can be described thus: 1B-4RL RL assay. It counts as cell-based. Conditions: Hepatitis C virus, 1B-4RL assay, Li23, HCV strain 1B-4, 72 hrs. On the procedure: as §1, with “G418. […]” for “G418.”
as §3

A value given as a limit tells only on which side of the number the result lay.

In the case of `C1CCCCCC2(CCCCC1)OOCCCOO2` [N-89, 1,2,6,7-Tetraoxaspiro[7.11]nonadecane], in series [1] (8 µM in OR6 cells, without a decrease in cell viability), the “anti-HCV activity (suppression)” value was above 99%. For the same molecule, the EC50 in [1] was 0.66 µM; in [2] (Hepatitis C virus, Huh-7, 72 h), below 1 µM; in series [2] (72 hrs), 0.58 µM; in series [7], 0.025 µM; in [10], 0.42 µM; in series [11], 0.12 µM. The CC50 at 72 h is 0.56 µM in series [3], 2.4 µM in [5], 9 µM in series [6] and above 0.5 µM in [8]. The “anti-HCV activity, subgenomic HCV-JFH-1 replicon” value in series [4] is recorded as “did not show any anti-HCV activities”. Besides, in [9], the “anti-HCV activity for the HCV-JFH-1 strain” value is on record as “did not show anti-HCV activity”.
Consider `OCCCCCCC1COOC2(CCCCCCCCCCC2)OOC1` [N-251, 6-(1,2,6,7-tetraoxaspiro[7.11]nonadec-4-yl)hexan-1-ol], for which the EC50 in series [1] was 0.69 µM; in series [2] (Hepatitis C virus, Huh-7, 72 h), below 1 µM; in series [2] (72 hrs), 0.69 µM; in series [7] it was 0.14 µM; in series [10] it was 0.98 µM; in series [11], 0.23 µM. Moreover, the CC50 at 72 h in series [3] turned out to be 1.1 µM; in series [5] it was 1.9 µM; in series [6], 3 µM; in series [8], 0.49 µM. The “anti-HCV activity, subgenomic HCV-JFH-1 replicon” value in series [4] was “did not show any anti-HCV activities”. The “anti-HCV activity for the HCV-JFH-1 strain” value in [9] is given as “did not show anti-HCV activity”.

What is called EC50 is the concentration at which the effect is half-maximal. The term CC50 denotes the concentration at which the toxic effect on the cells reaches its halfway point. A higher CC50 goes with better tolerance by the cells.
